Test results taken from patent US6143910A, “Methods for preparation and use of 1α, 24(S) -dihydroxy vitamin D2” (priority 1998, dated 2000).
Like-named read-outs stand apart in the source and are kept apart here.

Columns and labels:
[1] = human, in vivo; cited from earlier work
[2] = assay type: in vivo, rat
Method: Vitamin D2 or 24-OH-D2 was administered (either oral or intraperitoneal supplementation) to vitamin D-deficient rats. Lipid extracts of the plasma were prepared and the metabolites purified by the method of Horst et al. (Horst, R. L., Koszewski, N. J. and Reinhardt, T. A., Biochem., 29:578-82 (1990)) described below for synthesyzing standard biological 1α,24-(OH)2 D2.
Standard biological 1α,24-(OH)2 D2 was synthesized in vitro from 24-OH-D2 by incubating 10 μg of 24-OH-D2 in flask containing 5 ml of 20% kidney homogenates made from vitamin D-deficient chicks. The product of this reaction was isolated by HPLC and identified by mass spectrometry.

[3] = system: 1,25-(OH)2 D3 receptor site; conditions: Ishizuka et al., Steroids 1981, 1982; cited from earlier work
[4] = Blood metabolite levels in osteoporotic women administered 1α-OH-D2; assay type: in vivo, human; conditions: one day after a single 2 μg dose of 1α-OH-D2
Method: An increase in the production of 1α,24(S)-(OH)2 D2 relative to 1α,25-(OH)2 D2 has also been observed by the present inventors in human females who received 1α-OH-D2 as part of an investigation of that drug for the treatment of osteoporosis. Following either a single dose of 2 μg of 1α-OH-D2 or daily doses of 8 μg/day for one week, blood was collected and analyzed for the metabolites 1α,24(S)-(OH)2 D2 and 1α,25-(OH)2 D2. Lipid was extracted from the blood, and the metabolites were purified by HPLC using standard methods and quantified with the radioreceptor assay produced by Incstar (Stillwater, Minn.). One day after a single 2 μg dose, the level of 1α,24(S)-(OH)2 D2 was undetectable with the 1α,25-(OH)2 D2 level being approximately 11 pg/ml. In contrast, one day following the last dose of 8 μg, the level of 1α,24(S)-(OH)2 D2 averaged 9 pg/ml with the 1α,25-(OH)2 D2 level averaging 30 pg/ml.

Compound: C=C1/C(=C\C=C2/CCC[C@]3(C)[C@@H]([C@H](C)CCCC(C)C)CC[C@@H]23)C[C@@H](O)C[C@@H]1O [1α-(OH)D3, 1α-hydroxy vitamin D3]
- Safety of dosage levels of 2.0 μg/day or greater [1]: not safely obtained

Compound: C=C1CC[C@H](O)C/C1=C/C=C1\CCC[C@]2(C)[C@@H]([C@H](C)CCCC(C)C)CC[C@@H]12 [vitamin D3]
- 24-OH-D3 in plasma ([2]; comparable vitamin D-deficient rats): no detectable 24-OH-D3

Compound: C=C1CC[C@H](O)C/C1=C/C=C1\CCC[C@]2(C)[C@@H]([C@H](C)/C=C/[C@H](C)C(C)C)CC[C@@H]12 [vitamin D2]
- 1α,24-(OH)2 D2 metabolite in plasma lipid extracts ([2]; vitamin D-deficient rats, oral or intraperitoneal, HPLC): co-migrated on HPLC with the standard 1α,24-(OH)2 D2

Compound: C=C1/C(=C\C=C2/CCC[C@]3(C)[C@@H]([C@H](C)CC[C@@H](O)C(C)C)CC[C@@H]23)C[C@@H](O)C[C@@H]1O [1α,24(R)-(OH)2 D3, 1α,24(R)-dihydroxyvitamin D3]
- Binding of the 1,25-(OH)2 D3 receptor site relative to 1,25-(OH)2 D3 [3]: more tightly than does 1,25-(OH)2 D3 itself

Compound: C=C1/C(=C\C=C2/CCC[C@]3(C)[C@@H]([C@H](C)/C=C/[C@H](C)C(C)C)CC[C@@H]23)C[C@@H](O)C[C@@H]1O [1α-OH-D2, 1α-hydroxy vitamin D2]
- Blood level of metabolite 1α,24(S)-(OH)2 D2 [4]: undetectable

Compound: C=C1CC[C@H](O)C/C1=C/C=C1\CCC[C@]2(C)[C@@H]([C@H](C)/C=C/C(C)(O)C(C)C)CC[C@@H]12 (stereo partly drawn) [24-OH-D2, 24-hydroxyvitamin D2]
- 1α,24-(OH)2 D2 metabolite in plasma lipid extracts ([2]; rat, in vivo): co-migrated on HPLC with the standard 1α,24-(OH)2 D2
